Active and inactive are the calls of the source. The rule behind the calls is not given here.
Tested on: CCRIS mutagenicity, Ames/micronucleus/aberration tests
Assay: CCRIS mutagenicity studies
[1] = Test System: AMES SALMONELLA TYPHIMURIUM, Strain/Indicator: TA98, Metabolic Activation: NONE, Method: PREINCUBATION
[2] = Test System: AMES SALMONELLA TYPHIMURIUM, Strain/Indicator: TA100, Metabolic Activation: NONE, Method: PREINCUBATION
[3] = Test System: AMES SALMONELLA TYPHIMURIUM, Strain/Indicator: TA1535, Metabolic Activation: NONE, Method: PREINCUBATION
[4] = Test System: AMES SALMONELLA TYPHIMURIUM, Strain/Indicator: TA1537, Metabolic Activation: NONE, Method: PREINCUBATION
[5] = Test System: AMES SALMONELLA TYPHIMURIUM, Strain/Indicator: TA100, Metabolic Activation: RAT, LIVER, S-9, AROCLOR 1254, Method: PREINCUBATION

CC(CO)(CO)CO
mutagenic call [1]: inactive; negative
mutagenic call (Test System: AMES SALMONELLA TYPHIMURIUM, Strain/Indicator: TA98, Metabolic Activation: RAT LIVER S-9, PHENOBARBITAL AND BETA-NAPHTHOFLAVONE, Method: PREINCUBATION): inactive; negative
mutagenic call [2]: inactive; negative
mutagenic call (Test System: AMES SALMONELLA TYPHIMURIUM, Strain/Indicator: TA100, Metabolic Activation: RAT LIVER S-9, PHENOBARBITAL AND BETA-NAPHTHOFLAVONE, Method: PREINCUBATION): inactive; negative
mutagenic call [3]: inactive; negative
mutagenic call (Test System: AMES SALMONELLA TYPHIMURIUM, Strain/Indicator: TA1535, Metabolic Activation: RAT LIVER S-9, PHENOBARBITAL AND BETA-NAPHTHOFLAVONE, Method: PREINCUBATION): inactive; negative
mutagenic call [4]: inactive; negative
mutagenic call (Test System: AMES SALMONELLA TYPHIMURIUM, Strain/Indicator: TA1537, Metabolic Activation: RAT LIVER S-9, PHENOBARBITAL AND BETA-NAPHTHOFLAVONE, Method: PREINCUBATION): inactive; negative
mutagenic call (Test System: E.COLI, Strain/Indicator: WP2UVRA/PKM101, Metabolic Activation: NONE, Method: PREINCUBATION): inactive; negative
mutagenic call (Test System: E.COLI, Strain/Indicator: WP2UVRA/PKM101, Metabolic Activation: RAT LIVER S-9, PHENOBARBITAL AND BETA-NAPHTHOFLAVONE, Method: PREINCUBATION): inactive; negative

CC/C=C/C=C/C=C/C=C/C=C/OC[C@@H](O)CO
mutagenic call (Test System: AMES SALMONELLA TYPHIMURIUM, Strain/Indicator: TA98, Metabolic Activation: NONE, Method: STANDARD PLATE): active; positive
mutagenic call (Test System: AMES SALMONELLA TYPHIMURIUM, Strain/Indicator: TA98, Metabolic Activation: NONE, Method: STANDARD PLATE (AEROBIC)): inactive; negative
mutagenic call (Test System: AMES SALMONELLA TYPHIMURIUM, Strain/Indicator: TA98, Metabolic Activation: NONE, Method: STANDARD PLATE (ANAEROBIC)): active; positive
mutagenic call (Test System: AMES SALMONELLA TYPHIMURIUM, Strain/Indicator: TA98, Metabolic Activation: RAT, LIVER, S-9, AROCLOR 1254, Method: STANDARD PLATE): inactive; negative
mutagenic call (Test System: AMES SALMONELLA TYPHIMURIUM, Strain/Indicator: TA100, Metabolic Activation: NONE, Method: FLUCTUATION TEST (AEROBIC)): active; positive
mutagenic call (Test System: AMES SALMONELLA TYPHIMURIUM, Strain/Indicator: TA100, Metabolic Activation: NONE, Method: FLUCTUATION TEST (ANAEROBIC)): active; positive
mutagenic call (Test System: AMES SALMONELLA TYPHIMURIUM, Strain/Indicator: TA100, Metabolic Activation: NONE, Method: STANDARD PLATE): active; positive
mutagenic call (Test System: AMES SALMONELLA TYPHIMURIUM, Strain/Indicator: TA100, Metabolic Activation: NONE, Method: STANDARD PLATE (AEROBIC)): active; positive
mutagenic call (Test System: AMES SALMONELLA TYPHIMURIUM, Strain/Indicator: TA100, Metabolic Activation: NONE, Method: STANDARD PLATE (ANAEROBIC)): inactive; negative
mutagenic call [5]: active; positive
mutagenic call (Test System: AMES SALMONELLA TYPHIMURIUM, Strain/Indicator: TA100, Metabolic Activation: RAT, LIVER, S-9, AROCLOR 1254, Method: STANDARD PLATE): active; positive
mutagenic call (Test System: AMES SALMONELLA TYPHIMURIUM, Strain/Indicator: TA102, Metabolic Activation: NONE, Method: STANDARD PLATE): active; positive
mutagenic call (Test System: AMES SALMONELLA TYPHIMURIUM, Strain/Indicator: TA104, Metabolic Activation: NONE, Method: STANDARD PLATE): active; positive
mutagenic call (Test System: AMES SALMONELLA TYPHIMURIUM, Strain/Indicator: TA104, Metabolic Activation: RAT, LIVER, S-9, AROCLOR 1254, Method: STANDARD PLATE): active; positive
mutagenic call (Test System: E. COLI, Strain/Indicator: WP2 UVRA (PKM101), Metabolic Activation: NONE, Method: STANDARD PLATE (AEROBIC)): active; positive
mutagenic call (Test System: E. COLI, Strain/Indicator: WP2 UVRA (PKM101), Metabolic Activation: NONE, Method: STANDARD PLATE (ANAEROBIC)): inactive; negative
mutagenic call (Test System: MOUSE LYMPHOMA, Strain/Indicator: L5178Y (TK+/TK-), Metabolic Activation: NONE, Method: SUSPENSION/PLATE): active; positive
mutagenic call (Test System: MOUSE LYMPHOMA, Strain/Indicator: L5178Y (TK+/TK-), Metabolic Activation: RAT, LIVER, S-9, AROCLOR 1254, Method: SUSPENSION/PLATE): active; positive
mutagenic call (Test System: Mouse lymphoma, Strain/Indicator: L5178Y (tk+/tk-), Metabolic Activation: None, Method: Suspension/plate): active; positive
mutagenic call (Test System: Mouse lymphoma, Strain/Indicator: L5178Y (tk+/tk-), Metabolic Activation: Rat, Liver, S-9, Aroclor 1254, Method: Suspension/plate): inactive; negative

O=[N+]([O-])c1c(Cl)c(Cl)cc(Cl)c1Cl
mutagenic call (End Point: IN VITRO CHROMOSOMAL ABERRATIONS, Test System: CHINESE HAMSTER OVARY CELLS, Metabolic Activation: NONE): inactive; negative
mutagenic call (End Point: IN VITRO CHROMOSOMAL ABERRATIONS, Test System: CHINESE HAMSTER OVARY CELLS, Metabolic Activation: RAT, LIVER, S-9, AROCLOR 1254): inactive; negative
mutagenic call (Test System: AMES SALMONELLA TYPHIMURIUM, Strain/Indicator: TA98, Metabolic Activation: HAMSTER, LIVER, S-9, AROCLOR 1254, Method: PREINCUBATION): inactive; negative
mutagenic call [1]: inactive; negative
mutagenic call (Test System: AMES SALMONELLA TYPHIMURIUM, Strain/Indicator: TA98, Metabolic Activation: RAT, LIVER, S-9, AROCLOR 1254, Method: PREINCUBATION): inactive; negative
mutagenic call (Test System: AMES SALMONELLA TYPHIMURIUM, Strain/Indicator: TA100, Metabolic Activation: HAMSTER, LIVER, S-9, AROCLOR 1254, Method: PREINCUBATION): inactive; negative
mutagenic call [2]: inactive; negative
mutagenic call [5]: inactive; negative
mutagenic call (Test System: AMES SALMONELLA TYPHIMURIUM, Strain/Indicator: TA1535, Metabolic Activation: HAMSTER, LIVER, S-9, AROCLOR 1254, Method: PREINCUBATION): inactive; negative
mutagenic call [3]: inactive; negative
mutagenic call (Test System: AMES SALMONELLA TYPHIMURIUM, Strain/Indicator: TA1535, Metabolic Activation: RAT, LIVER, S-9, AROCLOR 1254, Method: PREINCUBATION): inactive; negative
mutagenic call (Test System: AMES SALMONELLA TYPHIMURIUM, Strain/Indicator: TA1537, Metabolic Activation: HAMSTER, LIVER, S-9, AROCLOR 1254, Method: PREINCUBATION): inactive; negative
mutagenic call [4]: inactive; negative
mutagenic call (Test System: AMES SALMONELLA TYPHIMURIUM, Strain/Indicator: TA1537, Metabolic Activation: RAT, LIVER, S-9, AROCLOR 1254, Method: PREINCUBATION): inactive; negative

c1ccc2c(c1)ccc1nc3ccc4c(c3cc12)CCCC4
mutagenic call (Test System: AMES SALMONELLA TYPHIMURIUM, Strain/Indicator: TA98, Metabolic Activation: GUINEA PIG, LIVER, S-9, 3-METHYLCHOLANTHRENE, Method: STANDARD PLATE): inactive; negative
mutagenic call (Test System: AMES SALMONELLA TYPHIMURIUM, Strain/Indicator: TA100, Metabolic Activation: GUINEA PIG, LIVER, S-9, 3-METHYLCHOLANTHRENE, Method: STANDARD PLATE): active; positive

CCCOc1ccc(N)cc1N
mutagenic call (Test System: AMES SALMONELLA TYPHIMURIUM, Strain/Indicator: TA97, Metabolic Activation: RAT, LIVER, S-9, AROCLOR 1254 (4%), Method: STANDARD PLATE): inactive; negative
mutagenic call (Test System: AMES SALMONELLA TYPHIMURIUM, Strain/Indicator: TA97, Metabolic Activation: RAT, LIVER, S-9, AROCLOR 1254 (10%), Method: STANDARD PLATE): active; positive
mutagenic call (Test System: AMES SALMONELLA TYPHIMURIUM, Strain/Indicator: TA1537, Metabolic Activation: RAT, LIVER, S-9, AROCLOR 1254 (4 OR 10%), Method: STANDARD PLATE): active; positive
mutagenic call (Test System: AMES SALMONELLA TYPHIMURIUM, Strain/Indicator: TA1538, Metabolic Activation: RAT, LIVER, S-9, AROCLOR 1254 (4 OR 10%), Method: STANDARD PLATE): active; positive

Nc1ccc2c(c1)-c1cccc3cccc-2c13
mutagenic call (Test System: AMES SALMONELLA TYPHIMURIUM, Strain/Indicator: TA98, Metabolic Activation: RAT, LIVER, S-9, AROCLOR 1254 (2 OR 4%), Method: STANDARD PLATE): active; positive
mutagenic call (Test System: AMES SALMONELLA TYPHIMURIUM, Strain/Indicator: TA100, Metabolic Activation: RAT, LIVER, S-9, AROCLOR 1254 (2%), Method: STANDARD PLATE): active; positive
mutagenic call (Test System: AMES SALMONELLA TYPHIMURIUM, Strain/Indicator: TA1535, Metabolic Activation: RAT, LIVER, S-9, AROCLOR 1254 (2%), Method: STANDARD PLATE): inactive; negative
mutagenic call (Test System: AMES SALMONELLA TYPHIMURIUM, Strain/Indicator: TA1537, Metabolic Activation: RAT, LIVER, S-9, AROCLOR 1254 (2%), Method: STANDARD PLATE): active; positive

Source: PubChem BioAssay AID1259407 (Chemical Carcinogenesis Research Information System (CCRIS), 2018)
